Active and inactive are the calls of the source. The rule behind the calls is not given here.
How the values were obtained:
[1] = tested on: Mus musculus; experiment: Upregulation of reticulocytes in C57BL/6J mouse at 10 mg/kg, po administered once daily for 3 days; type: functional, organism-based; details: time 3.0 day
[2] = tested on: Erythrocyte; experiment: Upregulation of reticulocytes in C57BL/6J mouse assessed as increase in RBC at 10 to 50 mg/kg, po administered once daily for 3 days; type: functional, organism-based; details: dose 10-50 mg/kg, time 3.0 day
[3] = target: Egl nine homolog 1 (Homo sapiens, UniProt Q9GZT9); experiment: Binding affinity to […] PHD2 (181 to 426 residues) (unknown origin) by fluorescence polarization assay
Chain of Egl nine homolog 1 (Q9GZT9 whole entry, the tested form may be a part): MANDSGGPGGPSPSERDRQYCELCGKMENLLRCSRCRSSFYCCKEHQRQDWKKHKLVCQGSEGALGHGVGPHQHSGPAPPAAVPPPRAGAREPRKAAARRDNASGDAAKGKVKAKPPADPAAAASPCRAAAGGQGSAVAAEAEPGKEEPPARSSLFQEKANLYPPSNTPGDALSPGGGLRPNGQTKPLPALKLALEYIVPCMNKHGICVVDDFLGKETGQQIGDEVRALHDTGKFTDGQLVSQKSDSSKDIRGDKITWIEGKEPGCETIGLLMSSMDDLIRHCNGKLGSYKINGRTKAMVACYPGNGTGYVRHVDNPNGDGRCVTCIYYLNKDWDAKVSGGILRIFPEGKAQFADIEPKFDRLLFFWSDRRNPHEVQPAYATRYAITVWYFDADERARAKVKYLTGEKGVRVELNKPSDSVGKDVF

IC50 [3] | SMILES | Activity [1] | Activity [2]
– | O=C(O)CNC(=O)c1ncc(-c2cccc(Cl)c2)cc1O | Active | Dose-Dependent Effect
0.0927 µM | O=C(O)CNC(=O)c1ncc(C2CCN(C(=O)c3ccccc3F)CC2)cc1O | – | –
0.0675 µM | O=C(O)CNC(=O)c1ncc(C2CCN(C(=O)c3ccc(F)cc3)CC2)cc1O | – | –
0.0156 µM | O=C(O)CNC(=O)c1ncc(C#CCOc2ccc(Cl)cc2)cc1O [DDO-3055] | – | –

Source: ChEMBL document CHEMBL5331121, “Preferred Conformation-Guided Discovery of Potent and Orally Active HIF Prolyl Hydroxylase 2 Inhibitors for the Treatment of Anemia” (J Med Chem, 2023)
